# Reference: patent publication US7666850B2, “Drug screens based on the newly found role of dystroglycan proteolysis and restoration of dystroglycan function thereof” (The Regents of the University of California, priority 1999, dated 2010)
# “Also recorded” adds a separate entry of the source.
# How the values were obtained:
# MMPs = details: MPs other than some ADAMs; cited from earlier work
# HMT-3522-T4 (T4) cells = assay: 3-dimensional basement membrane (3D-BM) assay, HMT-3522-T4 cells; assay type: cell-based
# From the text: Dystroglycan function reduces the growth potential and induces polarity in normal mammary epithelial cells exposed to basement membrane proteins. […] Because dystroglycan function is lost in part by proteolytic shedding, inhibition of dystroglycan shedding can restore or enhance dystroglycan function. Therefore, restoration of dystroglycan function can be used as an assay for inhibitors of the metaloproteinase(s) cleaving and shedding α-dystroglycan. […] The cells were counted and 100,000 cells were resuspended in 0.3-0.5 mls of growth factor-reduced Matrigel (Collaborative Research). This mixture was placed into a 1.5 cm diameter cell culture well, and incubated at 37 degrees Celsius for 30 minutes to induce gelling of the Matrigel. Subsequently, the gelled cell-BM protein mixture was overlayed with growth medium with or without the addition of protease inhibitors or control substances. The cells were cultured at 37 degrees Celsius in a cell culture incubator at 5% carbon dioxide. The growth medium and additives were changed every two days.
# The assay was allowed to proceed from 6 to 10 days. […] Measures of polarity and reduced growth potential can be easily optimized by methods existing in the art.
# [1] = tested on: α-dystroglycan shedding, SCg6 mammary carcinoma cells; assay: Dystroglycan proteolysis assay: immunoblot detection of α-dystroglycan shed from the cell surface into culture medium; assay type: cell-based
# Protocol: To ask if shedding was induced by the proteolysis, we treated the cells with a general matrix metaloproteinase (MW) inhibitor, GM6001, to see if α-dystroglycan shedding was inhibited.
# Cleavage of a-dystroglycan was detected using cultured cells that cleave and shed dystroglycan from the cell surface. Dystroglycan cleavage was assayed for by immunoblotting to detect the presence of dystroglycan fragments in the medium of cultured cells. Mammary carcinoma cell lines SCg6 or TCL1 were cultured in 10 milliliters (ml) DMEM/F12 medium supplemented with 2% fetal calf serum, 5 μg/ml insulin (Sigma Chemical Co., St. Louis, Mo.), and 50 μg/ml Gentamycin (UCSF Cell Culture Facility). The cells were allowed to grow to 80% confluence in 10 centimeter (cm) plastic tissue culture dishes. The cells were rinsed two times with phosphate-buffered saline (PBS) and the medium was then changed to 10 mls DMEM/F12 medium supplemented with insulin, and Gentamycin, but without added serum. The cells were incubated in this serum-free medium for 48 hrs, then this conditioned medium was harvested and filtered through 0.4 µm filters to remove cells or cell debris. The harvested medium was concentrated from 10 ml to approximately 1.0 ml using a CENTRIPREP-30 concentrator (Amicon, Beverly, Mass.). The concentrated supernatant was added to 1/10th volume of 10× sample buffer (50% glycerol, 100 mM acetic acid, 10% SDS (w/v), 12.5% (v/v) β-mercaptoethanol, bromophenol blue) and heated at 70 degrees Celsius for 15 minutes prior to loading on SDS-polyacrylamide (SDS-PAGE) gels, and subjected to immunoblot analysis. Assays of dystroglycan cleavage and shedding in the presence of the metaloproteinase inhibitor GM6001 (AMS Scientific, Pleasant Hills, Calif.) were performed in the same manner, with varying concentrations of GM6001, or the control C1004 (AMS Scientific), diluted into the serum-free culture medium at the beginning of the 48 hour incubation. To compare treatments, equivalent volumes of conditioned medium from each treated cell population were loaded onto the gel to determine the relative quantities of dystroglycan shed into the medium.
# After separation on an 8% SDS-PAGE gels, the proteins were electrophoretically transferred to Immobilon-P membranes (Millipore Corp., Bedford, Mass.) using methanol transfer buffer (20 mM Tris pH 8.3, 150 mM glycine, 0.5% SDS, 20% methanol). Following the transfer, the membranes were blocked for two hours in low salt TBST buffer (20 mM Tris-HCI, pH 8.0, 100 mM NaCl, 1.0% Tween-20 detergent) plus 5% non-fat dried milk (Lucerne). After blocking, the membranes were incubated for 45 minutes with the IIH6 monoclonal antibody (primary antibody against α-dystroglycan, obtained from Dr. Kevin Campbell, University of Iowa) diluted in low salt TBST plus 5% dried milk. The primary antibody was diluted 1:20 from a concentrated (8×) stock of hybridoma supernatant. After incubation with the primary antibody, the membranes were washed with low-salt TBST and incubated 45 minutes with an horse radish peroxidase (HRP) conjugated secondary antibody (anti-IgM Product # A 8786 from Sigma).
# MDA-MD-231 cells = assay: 3-dimensional basement membrane (3D-BM) assay, MDA-MD-231 cells; assay type: cell-based
# From the text: Dystroglycan function reduces the growth potential and induces polarity in normal mammary epithelial cells exposed to basement membrane proteins. […] Because dystroglycan function is lost in part by proteolytic shedding, inhibition of dystroglycan shedding can restore or enhance dystroglycan function. Therefore, restoration of dystroglycan function can be used as an assay for inhibitors of the metaloproteinase(s) cleaving and shedding α-dystroglycan. Carcinoma cell lines, including the HMT-3522-T4 cells and MDA-MD-231 cells, were cultured within the 3-dimensional basement membrane (3-D BM) assay. To accomplish this the cells were trypsinized from routine cell culture, washed once with DMEM/F12 medium, treated with soybean trypsin inhibitor, washed again with DMEM/F12 medium and resuspended in growth medium [DMEM/F12, supplemented with insulin 250 ng/ml (Boehringer Mannheim, Indianapolis, Ind.), 10 μg/ml transferrin (Sigma), 2.6 ng/ml sodium selenite (Collaborative Research), 1.4×10^−6 M hydrocortisone (Collaborative Research), 1×10^−10 M β-estradiol (Sigma),5 μg/ml prolactin (Sigma)]. The cells were counted and 100,000 cells were resuspended in 0.3-0.5 mls of growth factor-reduced Matrigel (Collaborative Research). This mixture was placed into a 1.5 cm diameter cell culture well, and incubated at 37 degrees Celsius for 30 minutes to induce gelling of the Matrigel. Subsequently, the gelled cell-BM protein mixture was overlayed with growth medium with or without the addition of protease inhibitors or control substances. The cells were cultured at 37 degrees Celsius in a cell culture incubator at 5% carbon dioxide. The growth medium and additives were changed every two days.
# The assay was allowed to proceed from 6 to 10 days. Over this time, the cells grew from single cells within the gel to form multicellular aggregates with variable characteristics, from polarized and growth arrested (normal phenotype), to disorganized and growing (tumorigenic phenotype), to invasive. […]
Molecule,GM6001 concentrations that generally inhibit other MP's (MMPs),"effect on tumor cell growth characteristics in the 3D-BM assay (HMT-3522-T4 (T4) cells; 2 μM, FIG. 3B)","tumorigenic phenotype in the 3D-BM assay (HMT-3522-T4 (T4) cells; 40 μM, FIGS. 3C, 3D)",cell growth after removal of the inhibitor (HMT-3522-T4 (T4) cells; removal for 7 days following a ten-day incubation with the inhibitor),"shedding of α-dystroglycan (proteolysed form) into the culture supernatant ([1]; 40 μM, FIG. 1B)","shedding of α-dystroglycan in the supernatant across a concentration series ([1]; five different concentrations, FIG. 1C)","Ki ([1]; titration of GM6001, FIG. 1C, 48 h serum-free medium, read-out: Ki (pKi) for inhibition of α-dystroglycan shedding (converted)) [µM]","concentration giving nearly complete inhibition of α-dystroglycan shedding ([1]; titration, FIG. 1C)","effect on tumor cell growth characteristics in the 3D-BM assay (MDA-MD-231 cells; 2 μM, FIG. 3F)","growth and invasion of MDA-MD-231 cells in the 3D-BM assay (MDA-MD-231 cells; 40 μM, FIGS. 3G, 3H)",concentration required to reduce growth (and invasion) of MDA-MD-231 cells (MDA-MD-231 cells; 6 to 10 days in Matrigel),reversion of the T4 tumor cell line in the 3D-BM assay (HMT-3522-T4 (T4) cells; 10 μM)
"CNC(=O)[C@H](Cc1c[nH]c2ccccc12)NC(=O)[C@@H](CC(=O)NO)CC(C)C [GM6001, N-[2(R)-2(hydroxamidocarbonylmethyl)-4-methylpentanoyl]-L-tryptophane methylamide]",below 30 μM,No effect,"Complete “reversion” of the tumor phenotype; also recorded: caused growth arrest, polarization and reversion to a non-tumorigenic phenotype",did not permit a re-initiation of cell growth,blocked; also recorded: no longer detected,differentially blocked,~10,over 25 μM,No effect,potently inhibited the growth and invasion,over 20 μM,–
TAPI,–,–,–,–,–,–,–,–,–,–,–,revert
